Experimental data reported in the supplement of paper PMC4862054.

Columns and labels:
Conditions in all cases: incubation time: 72 h
HCC1937 [1] = experiment: normalised response (% of control), CellTox Green; higher = less cell death (100 = DMSO, 0 = benzethonium chloride kill control)
In short: (§1)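 A 20 µl suspension of breast cancer cells was seeded into each well of 384-well plates containing compound at 5 concentrations in 10-fold steps over a compound-specific 10,000-fold range. After 72 h incubation, CellTox Green fluorescence (485/520 nm) was read first, and CellTiter-Glo luminescence was read after 10 min at room temperature. Each plate was normalised against 0.1 % DMSO (100) and a positive kill control (0), and each value is the normalised signal at one concentration.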

Hs578T [2] = experiment: as above
In short: as §1

BT-549 [3] = experiment: as above
In short: as §1

HDQ-P1 [4] = experiment: as above
In short: as §1

CAL-148 [5] = experiment: as above
In short: as §1

CAL-85-1 [6] = experiment: as above
In short: as §1

BT-474 [7] = experiment: as above
In short: as §1

MDA-MB-453 [8] = experiment: as above
In short: as §1

MCF-10A [9] = experiment: as above
In short: as §1

CAL-51 [10] = experiment: as above
In short: as §1

DU-4475 [11] = experiment: as above
In short: as §1

MDA-MB-468 [12] = experiment: as above
In short: as §1

HCC1599 [13] = experiment: as above
In short: as §1

MDA-MB-436 [14] = experiment: as above
In short: as §1

HCC1143 [15] = experiment: as above
In short: as §1

MDA-MB-231 [16] = experiment: as above
In short: as §1

CAL-120 [17] = experiment: as above
In short: as §1

MFM-223 [18] = experiment: as above
In short: as §1

HCC1937 [19] = experiment: normalised response (% of control), CellTiter-Glo; higher = more viable cells (100 = DMSO, 0 = benzethonium chloride kill control)
In short: as §1

Hs578T [20] = experiment: as above
In short: as §1

BT-549 [21] = experiment: as above
In short: as §1

SK-BR-3 = experiment: as above
In short: as §1

HDQ-P1 [22] = experiment: as above
In short: as §1

CAL-148 [23] = experiment: as above
In short: as §1

CAL-85-1 [24] = experiment: as above
In short: as §1

BT-474 [25] = experiment: as above
In short: as §1

MDA-MB-453 [26] = experiment: as above
In short: as §1

MCF-10A [27] = experiment: as above
In short: as §1

CAL-51 [28] = experiment: as above
In short: as §1

DU-4475 [29] = experiment: as above
In short: as §1

MDA-MB-468 [30] = experiment: as above
In short: as §1

HCC1599 [31] = experiment: as above
In short: as §1

MDA-MB-436 [32] = experiment: as above
In short: as §1

HCC1143 [33] = experiment: as above
In short: as §1

MDA-MB-231 [34] = experiment: as above
In short: as §1

CAL-120 [35] = experiment: as above
In short: as §1

MFM-223 [36] = experiment: as above
In short: as §1

| SMILES | normalised response (HCC1937 [1]) [%] | normalised response (Hs578T [2]) [%] | normalised response (BT-549 [3]) [%] | normalised response (HDQ-P1 [4]) [%] | normalised response (CAL-148 [5]) [%] | normalised response (CAL-85-1 [6]) [%] | normalised response (BT-474 [7]) [%] | normalised response (MDA-MB-453 [8]) [%] | normalised response (MCF-10A [9]) [%] | normalised response (CAL-51 [10]) [%] | normalised response (DU-4475 [11]) [%] | normalised response (MDA-MB-468 [12]) [%] | normalised response (HCC1599 [13]) [%] | normalised response (MDA-MB-436 [14]) [%] | normalised response (HCC1143 [15]) [%] | normalised response (MDA-MB-231 [16]) [%] | normalised response (CAL-120 [17]) [%] | normalised response (MFM-223 [18]) [%] | normalised response (HCC1937 [19]) [%] | normalised response (Hs578T [20]) [%] | normalised response (BT-549 [21]) [%] | normalised response (SK-BR-3) [%] | normalised response (HDQ-P1 [22]) [%] | normalised response (CAL-148 [23]) [%] | normalised response (CAL-85-1 [24]) [%] | normalised response (BT-474 [25]) [%] | normalised response (MDA-MB-453 [26]) [%] | normalised response (MCF-10A [27]) [%] | normalised response (CAL-51 [28]) [%] | normalised response (DU-4475 [29]) [%] | normalised response (MDA-MB-468 [30]) [%] | normalised response (HCC1599 [31]) [%] | normalised response (MDA-MB-436 [32]) [%] | normalised response (HCC1143 [33]) [%] | normalised response (MDA-MB-231 [34]) [%] | normalised response (CAL-120 [35]) [%] | normalised response (MFM-223 [36]) [%] |
| --- | --- | --- | --- | --- | --- | --- | --- | --- | --- | --- | --- | --- | --- | --- | --- | --- | --- | --- | --- | --- | --- | --- | --- | --- | --- | --- | --- | --- | --- | --- | --- | --- | --- | --- | --- | --- | --- |
| CC(C)C[C@@H](C(=O)N[C@H](C(=O)OC1CCCC1)c1ccccc1)[C@H](O)C(=O)NO [Tosedostat] (100 nM) | 91 | 81.3 | 72.1 | 76.4 | 81.6 | 62.7 | 102 | 102 | 76 | 53 | 102 | -23.4 | 104 | 68.7 | 86.2 | 30.6 | 78.6 | 84 | 77.5 | 91.2 | 70 | 82.8 | 90.3 | 94.2 | 74.4 | 59.1 | 64.5 | 101 | 77.9 | 91.8 | 60.2 | 85.1 | 89 | 83.5 | 70.2 | 79.6 | 90.7 |
| N#Cc1ccc(COC[C@H]2O[C@@H](n3c(NCc4ccc(Cl)c(Cl)c4)nc4c(N)ncnc43)[C@H](O)[C@@H]2O)cc1 (100 nM) | 60.8 | 114 | 99.3 | 85.9 | 104 | 101 | 100 | 110 | 97.2 | 114 | 106 | 130 | 115 | 96 | 108 | 86.9 | 99.7 | 108 | 95.3 | 95.2 | 103 | 104 | 101 | 104 | 104 | 98.6 | 95.7 | 102 | 97.2 | 103 | 100 | 98.3 | 110 | 103 | 111 | 108 | 110 |
| C=C1C[C@@H]2[C@H](CC[C@]3(C)C(=O)CC[C@@H]23)[C@@]2(C)C=CC(=O)C=C12 [Exemestane] (100 nM) | 56.9 | 86.8 | 92.8 | 94.5 | 89 | 101 | 104 | 108 | 109 | 116 | 109 | 50 | 112 | 109 | 99.6 | 117 | 102 | 107 | 94.8 | 104 | 101 | 106 | 102 | 109 | 103 | 98.6 | 106 | 110 | 111 | 106 | 101 | 104 | 103 | 104 | 107 | 106 | 106 |
| c1ccc2c(CCNc3ccc(Nc4ccncc4)cc3)c[nH]c2c1 [Serdemetan] (100 nM) | 98.8 | 99.5 | 103 | 51.9 | 96.1 | 103 | 100 | 103 | 88 | 91.4 | 100 | 83.8 | 93.7 | 88.8 | 104 | 93.5 | 96.9 | 93.3 | 92 | 93.2 | 101 | 98.3 | 105 | 91.8 | 103 | 90.6 | 106 | 95.2 | 84.5 | 101 | 95.1 | 122 | 92 | 99.2 | 98 | 98.2 | 99.9 |
| O=C(Nc1cccnc1)N1CCC(Cc2cccc(Oc3ccc(C(F)(F)F)cn3)c2)CC1 [PF-3845] (100 nM) | 110 | 87.9 | 99.9 | 105 | 103 | 97.5 | 104 | 104 | 107 | 110 | 107 | 107 | 113 | 107 | 121 | 121 | 104 | 102 | 103 | 103 | 104 | 112 | 96.7 | 113 | 104 | 103 | 113 | 112 | 106 | 102 | 107 | 85 | 103 | 107 | 115 | 102 | 110 |
| CCn1c(-c2nonc2N)nc2cnc(Oc3cccc(NC(=O)c4ccc(OCCN5CCOCC5)cc4)c3)cc21 (100 nM) | 108 | 66.9 | 90.2 | 105 | 98.4 | 98.3 | 103 | 101 | 97.3 | 63.3 | 100 | 119 | 96.8 | 82 | 101 | 79.4 | 102 | 95.4 | 102 | 80.5 | 88.6 | 97.9 | 99.6 | 99.6 | 95.5 | 81.8 | 97.1 | 75.6 | 80 | 95.4 | 91.4 | 95.9 | 103 | 103 | 86.5 | 81.9 | 98 |
